Source: patent US9302999B2, “Substituted triazoles as herbicides” (E. I. DU PONT DE NEMOURS AND COMPANY, priority 2012, dated 2016)
Where two headings read alike, the source gives them in different places.

Tests used:
Assay type in all cases: in vivo
[1] = test system: galium (catchweed bedstraw, Galium aparine); test: Test C pre-/postemergence: galium
Procedure, shortened: (§1)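 Preemergence on seeds in loam/sand, postemergence on 2–18 cm (1–4-leaf) plants in peat-based medium; compounds in non-phytotoxic solvent with surfactant. After 13–15 days in greenhouse, visual rating versus controls, 0 (no effect) to 100 (complete control).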

[2] = test system: velvetleaf (Abutilon theophrasti); test: Test C pre-/postemergence: velvetleaf
Procedure, shortened: as §1

[3] = test system: ryegrass, Italian (Italian ryegrass, Lolium multiflorum); test: Test C pre-/postemergence: ryegrass, Italian
Procedure, shortened: as §1

[4] = test system: morningglory (Ipomoea spp.); test: Test A pre-/postemergence: morningglory; conditions: for Morningglory plant response rating: 1000 g ai/ha; for pest or weed control at 125 g/ha / pest or weed control at 500 g/ha: Ipomoea, 240 h; for pest or weed control at 125 g/ha: 125 g ai/ha; for pest or weed control at 500 g/ha: 500 g ai/ha
Procedure, shortened: (§2)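 Injury was scored visually on a 0 (no effect) to 100 (complete control) scale versus untreated controls roughly ten days after treatment in the greenhouse. Compounds, formulated in surfactant-containing non-phytotoxic solvent, went on as soil-directed preemergence spray or postemergence to one- to two-leaf plants 2–10 cm tall.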

[5] = test system: johnsongrass (Sorghum halepense); test: Test C pre-/postemergence: johnsongrass
Procedure, shortened: as §1

kochia (Kochia scoparia) = test: Test C pre-/postemergence: kochia
Procedure, shortened: as §1

[6] = test system: large crabgrass (Digitaria sanguinalis); test: Test C pre-/postemergence: large crabgrass
Procedure, shortened: as §1

[7] = test system: pigweed (Amaranthus retroflexus); test: Test C pre-/postemergence: pigweed
Procedure, shortened: as §1

[8] = test system: wheat (Triticum aestivum); test: Test A pre-/postemergence: wheat; conditions: for Wheat plant response rating: 1000 g ai/ha; for plant injury at 125 g/ha / plant injury at 500 g/ha: Triticum aestivum, 240 h; for plant injury at 125 g/ha: 125 g ai/ha; for plant injury at 500 g/ha: 500 g ai/ha
Procedure, shortened: as §2

[9] = test system: foxtail, giant (giant foxtail, Setaria faberii); test: Test C pre-/postemergence: foxtail, giant
Procedure, shortened: as §1

[10] = test system: ragweed (common ragweed, Ambrosia elation); test: Test C pre-/postemergence: ragweed
Procedure, shortened: as §1

corn (Zea mays) = test: Test A pre-/postemergence: corn; conditions: for Corn plant response rating: 1000 g ai/ha
Procedure, shortened: as §2

[11] = Postemergence, 16 g ai/ha, scale 0 to 100, 0 no effect, 100 complete control
[12] = Postemergence, 31 g ai/ha, scale 0 to 100 (0 no effect, 100 complete control)
[13] = Postemergence, 62 g ai/ha, scale 0 to 100 (0 no effect, 100 complete control)
[14] = Postemergence, 125 g ai/ha, scale 0 to 100, 0 no effect, 100 complete control
[15] = Postemergence, visual rating on 0 to 100 scale (0 no effect, 100 complete control), approximately ten days
[16] = Preemergence, 0 to 100 scale, 0 is no effect, 100 is complete control
[17] = Postemergence, 250 g ai/ha, scale 0 to 100
[18] = Preemergence, 31 g ai/ha, scale of 0 to 100, 0 is no effect, 100 is complete control
[19] = Preemergence, 62 g ai/ha, scale of 0 to 100, 0 is no effect, 100 is complete control
[20] = Preemergence, 125 g ai/ha, scale 0 to 100, 0 no effect, 100 complete control
[21] = Preemergence, 250 g ai/ha, scale 0 to 100, 0 no effect, 100 complete control

Q: What does the source list for `Cc1nn(-c2ccc(C(F)(F)F)cc2)nc1Cc1cccc(C(F)(F)F)c1` [Compound 124]?
A: Plant response rating, Galium [1, 11]: 70; Plant response rating, Galium [1, 12]: 70; Plant response rating, Galium [1, 13]: 80; Plant response rating, Galium [1, 14]: 85; Plant response rating, Velvetleaf [2, 11]: 45; Plant response rating, Velvetleaf [2, 12]: 45; Plant response rating, Velvetleaf [2, 13]: 50; Plant response rating, Velvetleaf [2, 14]: 55; Plant response rating, Ryegrass, Italian [3, 11]: 5; Plant response rating, Ryegrass, Italian [3, 12]: 15; Plant response rating, Ryegrass, Italian [3, 13]: 35; Plant response rating, Ryegrass, Italian [3, 14]: 65; Morningglory plant response rating [4, 15]: 100; Morningglory plant response rating [4, 16]: 40; Plant response rating, Johnsongrass [5, 11]: 5; Plant response rating, Johnsongrass [5, 12]: 5; Plant response rating, Johnsongrass [5, 13]: 40; Plant response rating, Johnsongrass [5, 14]: 45; Plant response rating, Kochia (kochia (Kochia scoparia); [11]): 75; Plant response rating, Kochia (kochia (Kochia scoparia); [12]): 80; Plant response rating, Kochia (kochia (Kochia scoparia); [13]): 80; Plant response rating, Kochia (kochia (Kochia scoparia); [14]): 85; Plant response rating, Crabgrass, Large [6, 11]: 20; Plant response rating, Crabgrass, Large [6, 12]: 30; Plant response rating, Crabgrass, Large [6, 13]: 40; Plant response rating, Crabgrass, Large [6, 14]: 45; Plant response rating, Pigweed [7, 11]: 75; Plant response rating, Pigweed [7, 12]: 90; Plant response rating, Pigweed [7, 13]: 95; Plant response rating, Pigweed [7, 14]: 98; Wheat plant response rating [8, 15]: 40; Wheat plant response rating [8, 16]: 0; Plant response rating, Foxtail, Giant [9, 11]: 15; Plant response rating, Foxtail, Giant [9, 12]: 15; Plant response rating, Foxtail, Giant [9, 13]: 25; Plant response rating, Foxtail, Giant [9, 14]: 45; Plant response rating, Ragweed [10, 11]: 45; Plant response rating, Ragweed [10, 12]: 50; Plant response rating, Ragweed [10, 13]: 65; Plant response rating, Ragweed [10, 14]: 65; Corn plant response rating (corn (Zea mays); [15]): 60; Corn plant response rating (corn (Zea mays); [16]): 10

Q: What does the source list for `Cc1nn(-c2ccc(F)cc2)nc1Oc1ccnc(C(F)(F)F)c1` [Compound 129, 4-[[2-(4-fluorophenyl)-5-methyl-2H-1,2,3-triazol-4-yl]oxy]-2-(trifluoromethyl)pyridine]?
A: Plant response rating, Galium [1, 12]: 60; Plant response rating, Galium [1, 13]: 85; Plant response rating, Galium [1, 14]: 90; Plant response rating, Galium [1, 17]: 90; Plant response rating, Galium [1, 18]: 85; Plant response rating, Galium [1, 19]: 100; Plant response rating, Galium [1, 20]: 100; Plant response rating, Galium [1, 21]: 100; Plant response rating, Velvetleaf [2, 12]: 45; Plant response rating, Velvetleaf [2, 13]: 45; Plant response rating, Velvetleaf [2, 14]: 80; Plant response rating, Velvetleaf [2, 17]: 100; Plant response rating, Velvetleaf [2, 18]: 0; Plant response rating, Velvetleaf [2, 19]: 10; Plant response rating, Velvetleaf [2, 20]: 45; Plant response rating, Velvetleaf [2, 21]: 95; Plant response rating, Ryegrass, Italian [3, 12]: 5; Plant response rating, Ryegrass, Italian [3, 13]: 15; Plant response rating, Ryegrass, Italian [3, 14]: 30; Plant response rating, Ryegrass, Italian [3, 17]: 60; Plant response rating, Ryegrass, Italian [3, 18]: 60; Plant response rating, Ryegrass, Italian [3, 19]: 90; Plant response rating, Ryegrass, Italian [3, 20]: 90; Plant response rating, Ryegrass, Italian [3, 21]: 95; pest or weed control at 125 g/ha ([4]; post-emergence, Postemergence, 0 to 100 scale, 0 is no effect, 100 is complete control, read-out: Morningglory plant response rating): 100%; pest or weed control at 500 g/ha ([4]; post-emergence, Postemergence, visual rating on 0 to 100 scale (0 no effect, 100 complete control), approximately ten days, read-out: Morningglory plant response rating): 100%; pest or weed control at 125 g/ha ([4]; pre-emergence, Preemergence, 0 to 100 scale where 0 is no effect and 100 is complete control, read-out: Plant response rating, Morningglory): 50%; pest or weed control at 500 g/ha ([4]; pre-emergence, Preemergence, 0 to 100 scale (0 no effect, 100 complete control), read-out: Plant response rating, Morningglory): 60%; Plant response rating, Johnsongrass [5, 12]: 5; Plant response rating, Johnsongrass [5, 13]: 15; Plant response rating, Johnsongrass [5, 14]: 15; Plant response rating, Johnsongrass [5, 17]: 70; Plant response rating, Johnsongrass [5, 18]: 25; Plant response rating, Johnsongrass [5, 19]: 75; Plant response rating, Johnsongrass [5, 20]: 85; Plant response rating, Johnsongrass [5, 21]: 95; Plant response rating, Kochia (kochia (Kochia scoparia); [12]): 95; Plant response rating, Kochia (kochia (Kochia scoparia); [13]): 95; Plant response rating, Kochia (kochia (Kochia scoparia); [14]): 98; Plant response rating, Kochia (kochia (Kochia scoparia); [17]): 98; Plant response rating, Kochia (kochia (Kochia scoparia); [18]): 5; Plant response rating, Kochia (kochia (Kochia scoparia); [19]): 90; Plant response rating, Kochia (kochia (Kochia scoparia); [20]): 90; Plant response rating, Kochia (kochia (Kochia scoparia); [21]): 95; Plant response rating, Crabgrass, Large [6, 12]: 20; Plant response rating, Crabgrass, Large [6, 13]: 45; Plant response rating, Crabgrass, Large [6, 14]: 65; Plant response rating, Crabgrass, Large [6, 17]: 85; Plant response rating, Crabgrass, Large [6, 18]: 98; Plant response rating, Crabgrass, Large [6, 19]: 100; Plant response rating, Crabgrass, Large [6, 20]: 100; Plant response rating, Crabgrass, Large [6, 21]: 100; Plant response rating, Pigweed [7, 12]: 85; Plant response rating, Pigweed [7, 13]: 98; Plant response rating, Pigweed [7, 14]: 98; Plant response rating, Pigweed [7, 17]: 100; Plant response rating, Pigweed [7, 18]: 100; Plant response rating, Pigweed [7, 19]: 100; Plant response rating, Pigweed [7, 20]: 100; Plant response rating, Pigweed [7, 21]: 100; plant injury at 125 g/ha ([8]; post-emergence, Postemergence, 0 to 100 scale, 0 is no effect, 100 is complete control, read-out: Wheat plant response rating): 20%; plant injury at 500 g/ha ([8]; post-emergence, Postemergence, visual rating on 0 to 100 scale (0 no effect, 100 complete control), approximately ten days, read-out: Wheat plant response rating): 30%; plant injury at 125 g/ha ([8]; pre-emergence, Preemergence, 0 to 100 scale where 0 is no effect and 100 is complete control, read-out: Plant response rating, Wheat): 10%; plant injury at 500 g/ha ([8]; pre-emergence, Preemergence, 0 to 100 scale (0 no effect, 100 complete control), read-out: Plant response rating, Wheat): 50%; Plant response rating, Foxtail, Giant [9, 12]: 0; Plant response rating, Foxtail, Giant [9, 13]: 20; Plant response rating, Foxtail, Giant [9, 14]: 30; Plant response rating, Foxtail, Giant [9, 17]: 65; Plant response rating, Foxtail, Giant [9, 18]: 95; Plant response rating, Foxtail, Giant [9, 19]: 98; Plant response rating, Foxtail, Giant [9, 20]: 98; Plant response rating, Foxtail, Giant [9, 21]: 98; Plant response rating, Ragweed [10, 12]: 40; Plant response rating, Ragweed [10, 13]: 40; Plant response rating, Ragweed [10, 14]: 45; Plant response rating, Ragweed [10, 17]: 45; Plant response rating, Ragweed [10, 18]: 0; Plant response rating, Ragweed [10, 19]: 0; Plant response rating, Ragweed [10, 20]: 0; Plant response rating, Ragweed [10, 21]: 55; plant injury at 125 g/ha (corn (Zea mays); Zea mays, post-emergence, 240 h, Postemergence, 125 g ai/ha, 0 to 100 scale, 0 is no effect, 100 is complete control, read-out: Corn plant response rating): 30%; plant injury at 500 g/ha (corn (Zea mays); Zea mays, post-emergence, 240 h, Postemergence, 500 g ai/ha, visual rating on 0 to 100 scale (0 no effect, 100 complete control), approximately ten days, read-out: Corn plant response rating): 40%; Corn plant response rating (crop injury, 0 = no effect, 100 = complete kill) at 125 g/ha (corn (Zea mays); Zea mays, pre-emergence, 240 h, Preemergence, 125 g ai/ha, 0 to 100 scale where 0 is no effect and 100 is complete control): 50%; Corn plant response rating (crop injury, 0 = no effect, 100 = complete kill) at 500 g/ha (corn (Zea mays); Zea mays, pre-emergence, 240 h, Preemergence, 500 g ai/ha, 0 to 100 scale (0 no effect, 100 complete control)): 60%
